Laboratory results published in patent publication US8785488B2 (Exelixis Patent Company LLC, priority 2009, dated 2014).

Key:
[1] = target: T1, human TGR5 (h-TGR5) (Homo sapiens, UniProt Q8TDU6); experiment: TGR5/CRE-Luciferiase Assay (HEK 293 hTGR5/CRE-Luc cells); format: cell-based; settings: h-TGR5 CRE-Luc EC50, Table 1; read-out: CRE-Luc (EC50)
T1 construct: expressed in transfected cells
T1 sequence (Q8TDU6 1-330): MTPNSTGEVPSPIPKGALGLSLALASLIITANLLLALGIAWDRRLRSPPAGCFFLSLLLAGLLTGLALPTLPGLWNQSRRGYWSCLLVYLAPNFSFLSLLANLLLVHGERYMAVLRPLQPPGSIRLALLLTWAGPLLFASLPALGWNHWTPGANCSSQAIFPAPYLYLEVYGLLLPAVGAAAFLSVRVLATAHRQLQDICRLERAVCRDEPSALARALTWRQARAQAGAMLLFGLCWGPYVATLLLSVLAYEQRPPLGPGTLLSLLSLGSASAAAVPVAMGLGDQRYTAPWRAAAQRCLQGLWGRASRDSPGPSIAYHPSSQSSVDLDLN
How it was run: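 HEK293 cells stably carrying hTGR5 and a CRE-luciferase reporter were exposed to serially diluted compounds (diluted in DMEM with 5% DMSO) for 6 h. Cells were then lysed in luciferase buffer, luminescence was read, and EC50 values were derived from dose-response curves.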

[2] = target: T2, h-TGR5 (Homo sapiens, UniProt Q8TDU6); experiment: TGR5 cAMP Assay using Cisbio cAMP Dynamic2 htrf kit (hTGR5CRE-luc HEK 293 cells); format: cell-based; settings: h-TGR5 cAMP EC50, Table 1; read-out: cAMP (EC50)
T2 construct: expressed in transfected cells
T2 sequence (Q8TDU6 1-330): T1 sequence (Q8TDU6 1-330)
How it was run: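 […], 4000 hTGR5CRE-luc HEK 293 cells per well, with 0.5 mM IBMX and d2-cAMP, were incubated 30 min at room temperature with compounds in 8-point half-log series, in quadruplicate.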

Row | Structure (SMILES) | EC50 [1] | EC50 [2]
1 | CC(C)(c1ccc(Cl)c(Cl)c1)c1cnc(SCC2CCN(S(C)(=O)=O)CC2)n1-c1ccc(F)cc1 [4-[({5-[1-(3,4-dichlorophenyl)-1-methylethyl]-1-(4-fluorophenyl)-1H-imidazol-2-yl}thio)methyl]-1-(methylsulfonyl)piperidine] | < 100 nM | 100 to 1000 nM
2 | CC(C)(c1ccc(Cl)c(Cl)c1)c1cnc(SCc2c(F)cc(C(=O)NO)cc2F)n1-c1ccc(F)cc1 [4-[({5-[1-(3,4-dichlorophenyl)-1-methylethyl]-1-(4-fluorophenyl)-1H-imidazol-2-yl}thio)methyl]-3,5-difluoro-N-hydroxybenzamide] | < 100 nM | < 100 nM
3 | CC(C)(c1ccc(Cl)c(Cl)c1)c1cnc(SCc2c(F)cc(C(N)=O)cc2F)n1-c1ccc(F)cc1 [4-[({5-[1-(3,4-dichlorophenyl)-1-methylethyl]-1-(4-fluorophenyl)-1H-imidazol-2-yl}thio)methyl]-3,5-difluorobenzamide] | 100 to 1000 nM | 100 to 1000 nM
4 | CC(C)(c1ccc(Cl)c(Cl)c1)c1cnc(SCc2c(F)cc(C(=O)O)cc2F)n1-c1ccc(F)cc1 [4-[({5-[1-(3,4-dichlorophenyl)-1-methylethyl]-1-(4-fluorophenyl)-1H-imidazol-2-yl}thio)methyl]-3,5-difluorobenzoic acid] | < 100 nM | 100 to 1000 nM
5 | CC(C)(O)CNC(=O)c1ccc(CSc2ncc(C(C)(C)c3ccc(Cl)c(Cl)c3)n2-c2ccc(F)cc2)c(F)c1 [4-[({5-[1-(3,4-dichlorophenyl)-1-methylethyl]-1-(4-fluorophenyl)-1H-imidazol-2-yl}thio)methyl]-3-fluoro-N-(2-hydroxy-2-methylpropyl)benzamide] | 100 to 1000 nM | 100 to 1000 nM
6 | CC(C)(c1ccc(Cl)c(Cl)c1)c1cnc(SCc2ccc(C(=O)NCCc3c[nH]cn3)cc2F)n1-c1ccc(F)cc1 [4-[({5-[1-(3,4-dichlorophenyl)-1-methylethyl]-1-(4-fluorophenyl)-1H-imidazol-2-yl}thio)methyl]-3-fluoro-N-[2-(1H-imidazol-4-yl)ethyl]benzamide] | 100 to 1000 nM | 100 to 1000 nM
7 | CC(C)(c1ccc(Cl)c(Cl)c1)c1cnc(SCc2ccc(S(N)(=O)=O)cc2F)n1-c1ccc(F)cc1 [4-[({5-[1-(3,4-dichlorophenyl)-1-methylethyl]-1-(4-fluorophenyl)-1H-imidazol-2-yl}thio)methyl]-3-fluorobenzenesulfonamide] | 100 to 1000 nM | 100 to 1000 nM
8 | CC(C)(c1ccc(Cl)c(Cl)c1)c1cnc(SCc2ccc(C(=O)O)cc2F)n1-c1ccc(F)cc1 [4-[({5-[1-(3,4-dichlorophenyl)-1-methylethyl]-1-(4-fluorophenyl)-1H-imidazol-2-yl}thio)methyl]-3-fluorobenzoic acid] | 100 to 1000 nM | 100 to 1000 nM
9 | CC(C)(c1ccc(Cl)c(Cl)c1)c1cnc(SCc2c(F)cc(C(=O)O)cc2F)n1-c1ccc(F)c(C(F)F)c1 [4-[({5-[1-(3,4-dichlorophenyl)-1-methylethyl]-1-[3-(difluoromethyl)-4-fluorophenyl]-1H-imidazol-2-yl}thio)methyl]-3,5-difluorobenzoic acid] | < 100 nM | 100 to 1000 nM
10 | COc1cc(-n2c(C(C)(C)c3ccc(Cl)c(Cl)c3)cnc2SCC2CCN(c3nnn[nH]3)CC2)ccc1F [4-[({5-[1-(3,4-dichlorophenyl)-1-methylethyl]-1-[4-fluoro-3-(methyloxy)phenyl]-1H-imidazol-2-yl}thio)methyl]-1-(1H-tetrazol-5-yl)piperidine] | < 100 nM | < 100 nM
11 | COc1cc(-n2c(C(C)(C)c3ccc(Cl)c(Cl)c3)cnc2SCc2c(F)cc(C(=O)O)cc2F)ccc1F [4-[({5-[1-(3,4-dichlorophenyl)-1-methylethyl]-1-[4-fluoro-3-(methyloxy)phenyl]-1H-imidazol-2-yl}thio)methyl]-3,5-difluorobenzoic acid] | < 100 nM | < 100 nM
12 | COc1cc(-n2c(C(C)(C)c3ccc(Cl)c(Cl)c3)cnc2SCC2CCN(C(=O)NC(C)C)CC2)ccc1F [4-[({5-[1-(3,4-dichlorophenyl)-1-methylethyl]-1-[4-fluoro-3-(methyloxy)phenyl]-1H-imidazol-2-yl}thio)methyl]-N-(1-methylethyl)piperidine-1-carboxamide] | < 100 nM | 100 to 1000 nM
13 | O=C(O)c1cc(F)c(CSc2ncc(C3(c4ccc(Cl)c(Cl)c4)CC3)n2-c2ccc(F)cc2)c(F)c1 [4-[({5-[1-(3,4-dichlorophenyl)cyclopropyl]-1-(4-fluorophenyl)-1H-imidazol-2-yl}thio)methyl]-3,5-difluorobenzoic acid] | 100 to 1000 nM | 100 to 1000 nM
14 | CC(C)(c1ccc(F)c(F)c1)c1cnc(SCC2CCN(S(C)(=O)=O)CC2)n1-c1ccc(F)cc1 [4-[({5-[1-(3,4-difluorophenyl)-1-methylethyl]-1-(4-fluorophenyl)-1H-imidazol-2-yl}thio)methyl]-1-(methylsulfonyl)piperidine] | < 100 nM | 100 to 1000 nM
15 | CC(C)(c1ccc(F)c(F)c1)c1cnc(SCC2CCN(C(=O)NN3CCCC3)CC2)n1-c1ccc(F)cc1 [4-[({5-[1-(3,4-difluorophenyl)-1-methylethyl]-1-(4-fluorophenyl)-1H-imidazol-2-yl}thio)methyl]-N-pyrrolidin-1-ylpiperidine-1-carboxamide] | 100 to 1000 nM | 100 to 1000 nM
16 | CC(C)(c1ccc2onc(N)c2c1)c1cnc(SCc2c(F)cc(C(=O)O)cc2F)n1-c1ccc(F)cc1 [4-[({5-[1-(3-amino-1,2-benzisoxazol-5-yl)-1-methylethyl]-1-(4-fluorophenyl)-1H-imidazol-2-yl}thio)methyl]-3,5-difluorobenzoic acid] | < 100 nM | < 100 nM

Other lines, results leading:

Row | EC50 [1] | EC50 [2] | Structure (SMILES)
17 | < 100 nM | < 100 nM | COc1cc(-n2c(C(C)(C)c3ccc4onc(N)c4c3)cnc2SCc2c(F)cc(C(=O)O)cc2F)ccc1F [4-[({5-[1-(3-amino-1,2-benzisoxazol-5-yl)-1-methylethyl]-1-[4-fluoro-3-(methyloxy)phenyl]-1H-imidazol-2-yl}thio)methyl]-3,5-difluorobenzoic acid]
18 | < 100 nM | < 100 nM | CC(C)(c1ccc(F)c(C#N)c1)c1cnc(SCc2c(F)cc(C(=O)O)cc2F)n1-c1ccc(F)cc1 [4-[({5-[1-(3-cyano-4-fluorophenyl)-1-methylethyl]-1-(4-fluorophenyl)-1H-imidazol-2-yl}thio)methyl]-3,5-difluorobenzoic acid]
19 | < 100 nM | < 100 nM | COc1cc(-n2c(C(C)(C)c3ccc(F)c(C#N)c3)cnc2SCc2c(F)cc(C(=O)O)cc2F)ccc1F [4-[({5-[1-(3-cyano-4-fluorophenyl)-1-methylethyl]-1-[4-fluoro-3-(methyloxy)phenyl]-1H-imidazol-2-yl}thio)methyl]-3,5-difluorobenzoic acid]
20 | < 100 nM | < 100 nM | COc1cc(C(C)(C)c2cnc(SCc3cc(C(=O)O)ccc3Cl)n2-c2ccc(F)cc2)ccc1Cl [4-chloro-3-({[5-{1-[4-chloro-3-(methyloxy)phenyl]-1-methylethyl}-1-(4-fluorophenyl)-1H-imidazol-2-yl]thio}methyl)benzoic acid]
21 | 100 to 1000 nM | 100 to 1000 nM | CC(C)(c1ccc(Cl)c(Cl)c1)c1cnc(SCc2cc(C(=O)O)ccc2Cl)n1-c1ccc(F)cc1 [4-chloro-3-[({5-[1-(3,4-dichlorophenyl)-1-methylethyl]-1-(4-fluorophenyl)-1H-imidazol-2-yl}thio)methyl]benzoic acid]
22 | 100 to 1000 nM | 100 to 1000 nM | CC(C)(c1ccc(F)c(F)c1)c1cnc(SCc2cc(C(=O)O)ccc2Cl)n1-c1ccc(F)cc1 [4-chloro-3-[({5-[1-(3,4-difluorophenyl)-1-methylethyl]-1-(4-fluorophenyl)-1H-imidazol-2-yl}thio)methyl]benzoic acid]
23 | < 100 nM | < 100 nM | COc1cc(C(C)(C)c2cnc(SCc3cc(S(N)(=O)=O)c(F)cc3Cl)n2-c2ccc(F)cc2)ccc1Cl [4-chloro-5-({[5-{1-[4-chloro-3-(methyloxy)phenyl]-1-methylethyl}-1-(4-fluorophenyl)-1H-imidazol-2-yl]thio}methyl)-2-fluorobenzenesulfonamide]
24 | < 100 nM | 100 to 1000 nM | CC(C)(c1ccc(O)c(O)c1)c1cnc(SCc2c(F)cccc2Cl)n1-c1ccc(F)cc1 [4-{1-[2-{[(2-chloro-6-fluorophenyl)methyl]thio}-1-(4-fluorophenyl)-1H-imidazol-5-yl]-1-methylethyl}benzene-1,2-diol]
25 | 100 to 1000 nM | 100 to 1000 nM | CC(C)(c1ccc(S(N)(=O)=O)cc1)c1cnc(SCc2c(F)cccc2Cl)n1-c1ccc(F)cc1 [4-{1-[2-{[(2-chloro-6-fluorophenyl)methyl]thio}-1-(4-fluorophenyl)-1H-imidazol-5-yl]-1-methylethyl}benzenesulfonamide]
26 | < 100 nM | < 100 nM | COc1cc(-n2c(C(C)(C)c3ccc(S(N)(=O)=O)c(Cl)c3)cnc2SCc2c(F)cc(S(=O)(=O)NC(=O)NN3CCOCC3)cc2F)ccc1F [4-{[(5-{1-[4-(aminosulfonyl)-3-chlorophenyl]-1-methylethyl}-1-[4-fluoro-3-(methyloxy)phenyl]-1H-imidazol-2-yl)thio]methyl}-3,5-difluoro-N-[(morpholin-4-ylamino)carbonyl]benzenesulfonamide]
